Legend:
JEG3 [1] = assay: Single agent activity, panel of 81 cancer cell lines plus PBMC; format: cell-based; settings: Homo sapiens, JEG-3, lower end of range
152OS = assay: SRB growth inhibition, 93 cell lines panel; format: cell-based; settings: bone, read-out: GI50 of etoposide (±Compound 1)
Protocol: (§1) 90 μl of cells, after a 48-hour pre-growth period, were treated by mixing with 10 μl of the compound-containing media (resulting in a final DMSO concentration of 0.1%).
(§2) This is the drug concentration causing a 50% reduction compared to the net protein increase in control cells during the drug incubation period. In other words, G150 is IC50 corrected for time zero. […] TGI was calculated from Ti=Tz. […] It was calculated as 100×[(Ti−Tz)/Tz]=−50.

786O = assay: SRB growth inhibition, 93 cell lines panel; format: cell-based; settings: Homo sapiens, 786-0, kidney, read-out: GI50 of etoposide (±Compound 1)
Protocol: as §1, §2

A204 = assay: SRB growth inhibition, 93 cell lines panel; format: cell-based; settings: Homo sapiens; A204, muscle; read-out: GI50 of etoposide (±Compound 1)
Protocol: as §1, §2

A431 = assay: SRB growth inhibition, 93 cell lines panel; format: cell-based; settings: Homo sapiens, A-431; A431, skin; read-out: GI50 of etoposide (±Compound 1)
Protocol: as §1, §2

A549 = assay: SRB growth inhibition, 93 cell lines panel; format: cell-based; settings: Homo sapiens; A549, lung; read-out: GI50 of etoposide (±Compound 1)
Protocol: as §1, §2

ACHN = assay: SRB growth inhibition, 93 cell lines panel; format: cell-based; settings: Homo sapiens, kidney, read-out: GI50 of etoposide (±Compound 1)
Protocol: as §1, §2

ASPC1 = assay: SRB growth inhibition, 93 cell lines panel; format: cell-based; settings: Homo sapiens; ASPC1, pancreas; read-out: GI50 of etoposide (±Compound 1)
Protocol: as §1, §2

BXPC3 = assay: SRB growth inhibition, 93 cell lines panel; format: cell-based; settings: Homo sapiens, BXPC-3; BXPC3, pancreas; read-out: GI50 of etoposide (±Compound 1)
Protocol: as §1, §2

CAKI1 = assay: SRB growth inhibition, 93 cell lines panel; format: cell-based; settings: Homo sapiens, CAKI-1; CAKI1, kidney; read-out: GI50 of etoposide (±Compound 1)
Protocol: as §1, §2

CALU6 = assay: SRB growth inhibition, 93 cell lines panel; format: cell-based; settings: Homo sapiens, Calu-6; CALU6, lung; read-out: GI50 of etoposide (±Compound 1)
Protocol: as §1, §2

COLO678 = assay: SRB growth inhibition, 93 cell lines panel; format: cell-based; settings: Homo sapiens, COLO-678; COLO678, colon; read-out: GI50 of etoposide (±Compound 1)
Protocol: as §1, §2

EJ28 = assay: SRB growth inhibition, 93 cell lines panel; format: cell-based; settings: Homo sapiens, EJ-28; EJ28, bladder; read-out: GI50 of etoposide (±Compound 1)
Protocol: as §1, §2

HS729 = assay: SRB growth inhibition, 93 cell lines panel; format: cell-based; settings: HS729, muscle; read-out: GI50 of etoposide (±Compound 1)
Protocol: as §1, §2

IGROV1 = assay: SRB growth inhibition, 93 cell lines panel; format: cell-based; settings: Homo sapiens, IGROV-1; IGROV1, ovary; read-out: GI50 of etoposide (±Compound 1)
Protocol: as §1, §2

IMR90 = assay: SRB growth inhibition, 93 cell lines panel; format: cell-based; settings: Homo sapiens, IMR-90; IMR90, lung; read-out: GI50 of etoposide (±Compound 1)
Protocol: as §1, §2

JEG3 [2] = assay: SRB growth inhibition, 93 cell lines panel; format: cell-based; settings: Homo sapiens, JEG-3; JEG3, placenta; read-out: GI50 of etoposide (±Compound 1)
Protocol: as §1, §2

KASUMI-1 = assay: SRB growth inhibition, 93 cell lines panel; format: cell-based; settings: Homo sapiens; KASUMI-1, hematological; read-out: GI50 of etoposide (±Compound 1)
Protocol: as §1, §2

LOVO = assay: SRB growth inhibition, 93 cell lines panel; format: cell-based; settings: Homo sapiens, colon, read-out: GI50 of etoposide (±Compound 1)
Protocol: as §1, §2

MDAMB231 = assay: SRB growth inhibition, 93 cell lines panel; format: cell-based; settings: Homo sapiens, MDA-MB-231; MDAMB231, breast; read-out: GI50 of etoposide (±Compound 1)
Protocol: as §1, §2

MIAPACA2 = assay: SRB growth inhibition, 93 cell lines panel; format: cell-based; settings: Homo sapiens, MIA PaCa-2; MIAPACA2, pancreas; read-out: GI50 of etoposide (±Compound 1)
Protocol: as §1, §2

MINO = assay: SRB growth inhibition, 93 cell lines panel; format: cell-based; settings: Homo sapiens, hematological, read-out: GI50 of etoposide (±Compound 1)
Protocol: as §1, §2

RDES = assay: SRB growth inhibition, 93 cell lines panel; format: cell-based; settings: RD-ES, bone, read-out: GI50 of etoposide (±Compound 1)
Protocol: as §1, §2

SKLMS1 = assay: SRB growth inhibition, 93 cell lines panel; format: cell-based; settings: Homo sapiens, SK-LMS-1; SKLMS1, uterus; read-out: GI50 of etoposide (±Compound 1)
Protocol: as §1, §2

SKMEL5 = assay: SRB growth inhibition, 93 cell lines panel; format: cell-based; settings: Homo sapiens, SK-MEL-5; SKMEL5, skin; read-out: GI50 of etoposide (±Compound 1)
Protocol: as §1, §2

TE671 = assay: SRB growth inhibition, 93 cell lines panel; format: cell-based; settings: Homo sapiens, TE-671; TE671, muscle; read-out: GI50 of etoposide (±Compound 1)
Protocol: as §1, §2

lung cancer cell lines = assay: cells; settings: read-out: Median etoposide concentration needed to reach GI50
Protocol: (§3) Single agent as well as combination treatment growth inhibition effects were measured by ONCOLEAD.
(§4) Relative area above the dose-response curve (relAOC or AOC) were obtained as the area above the dose-response curve in the dose range between 1E-3M and 1E-10M.

[3] = tested on: mesothelioma (pleura) cell lines; assay: cells; settings: read-out: Median etoposide concentration needed to reach GI50
Protocol: as §3, §4

DLD1 = assay: cells; settings: Homo sapiens, DLD-1, read-out: GI50 of etoposide (±Compound 1)
Protocol: Cell growth and treatment were performed in 96-well microtitre plates CELLSTAR® (Greiner Bio-One, Germany). Cells harvested from exponential phase cultures by trypsinization or by splitting (in the case of cells growing in suspension) were plated in 90 μl of media at optimal seeding densities. The optimal seeding density for each cell line was determined to ensure exponential growth for the duration of the experiment. All cells growing without anticancer agents were sub-confluent by the end of the treatment, as determined by visual inspection.
90 μl of cells, after a 48-hour pre-growth period, were treated by mixing with 10 μl of the compound-containing media (resulting in a final DMSO concentration of 0.1%). The cells were allowed to grow at 37° C. for 72 (or 120) hours.
Cells were fixed to the surface by addition of 10% TCA (for adherent growing cells) or 50% TCA (for semi-adherent growing cell or cells growing in suspension). After an hour of incubation at 4° C. plates were washed twice with 200 μl of deionized water and dried. Cells were then stained with 100 μl of 0.04% w/v SRB. […]
Using these measurements, cellular responses can be calculated for incomplete inhibition of cell growth (GI), complete inhibition of cell growth (TGI) and net loss of cells (LC) due to compound activity. […] TGI was calculated from Ti=Tz. […] It was calculated as 100×[(Ti−Tz)/Tz]=−50.

SF295 = assay: SRB growth inhibition, 93 cell lines panel; settings: Homo sapiens, SF-295, read-out: GI50 of etoposide (±Compound 1)
Protocol: Cell growth and treatment were performed in 96-well microtitre plates CELLSTAR® (Greiner Bio-One, Germany). Cells harvested from exponential phase cultures by trypsinization or by splitting (in the case of cells growing in suspension) were plated in 90 μl of media at optimal seeding densities. The optimal seeding density for each cell line was determined to ensure exponential growth for the duration of the experiment. All cells growing without anticancer agents were sub-confluent by the end of the treatment, as determined by visual inspection. […] The cells were allowed to grow at 37° C. for 72 (or 120) hours. […] Cells were fixed to the surface by addition of 10% TCA (for adherent growing cells) or 50% TCA (for semi-adherent growing cell or cells growing in suspension). After an hour of incubation at 4° C. plates were washed twice with 200 μl of deionized water and dried. Cells were then stained with 100 μl of 0.04% w/v SRB. The plates were incubated at room temperature for at least 30 min and washed six times with 1% acetic acid to remove unbound stain. […] Using these measurements, cellular responses can be calculated for incomplete inhibition of cell growth (GI), complete inhibition of cell growth (TGI) and net loss of cells (LC) due to compound activity. […] TGI was calculated from Ti=Tz.

[4] = tested on: LoVo colon carcinoma xenografts; assay: Single agent efficacy, ATM pathway deficient LoVo xenograft; format: in vivo, mouse
Source text: We tested the effect of Compound 1 on the growth of established LoVo colon carcinoma xenografts that are known to be deficient in ATM pathway function due to mutation in the MRE11 protein.

COc1cc([C@@H]2c3cc4c(cc3[C@@H](O[C@@H]3O[C@@H]5CO[C@@H](C)O[C@H]5[C@H](O)[C@H]3O)[C@H]3COC(=O)[C@H]23)OCO4)cc(OC)c1O [Etoposide]
GI50 (JEG3 [1]): 30 nM | GI50 (152OS): 1080 nM | GI50 (786O): 928 nM | GI50 (A204): 286 nM | GI50 (A431): 1520 nM | GI50 (A549): 390 nM | GI50 (ACHN): 714 nM | GI50 (ASPC1): > 10000 nM | GI50 (BXPC3): 7140 nM | GI50 (CAKI1): 520 nM | GI50 (CALU6): 3650 nM | GI50 (COLO678): 10800 nM | GI50 (EJ28): 440 nM | GI50 (HS729): 730 nM | GI50 (IGROV1): 1060 nM | GI50 (IMR90): 704 nM | GI50 (JEG3 [2]): 41 nM | GI50 (KASUMI-1): 494 nM | GI50 (LOVO): 606 nM | GI50 (MDAMB231): 1940 nM | GI50 (MIAPACA2): 689 nM | GI50 (MINO): 236 nM | GI50 (RDES): 412 nM | GI50 (SKLMS1): 1640 nM | GI50 (SKMEL5): 558 nM | GI50 (TE671): 1150 nM | GI50 (lung cancer cell lines): 320 nM | GI50 [3]: 1000 nM | GI50 (DLD1): 1350 nM | GI50 (SF295): 1160 nM

COc1ccc([C@@H](O)c2cc(-c3ncnc4cc(N5CCOCC5)ccc34)c(F)cc2Cl)nn1 [Compound 1, (S)-[2-chloro-4-fluoro-5-(7-morpholin-4-yl-quinazolin-4-yl)-phenyl]-(6-methoxy-pyridazin-3-yl)-methanol]
tumor growth suppression ([4]; 150 mg/kg, three weeks): nearly complete growth suppression | tumor growth inhibition ([4]; three week administration): dose-dependent tumor growth inhibition

— US11246929B2, “Combination of a protein kinase inhibitor and an additional chemotherapeutic agent” (Merck Patent GmbH, priority 2016, dated 2022)
